The results in this text go back to patent US20170189357A1, “METHODS OF LIMITING MORBIDITY IN HEMOGLOBINOPATHIES” (DUKE UNIVERSITY, priority 2014, published 2017).

Type in all cases: cell-based, human
Experiment [1] concerns p60-c-Src. Put plainly: p60-c-Src phosphorylation in SSRBCs (Western blot of membrane ghosts). The following applies: 1 μM inhibitor before 1 μg/ml PTx; p<0.0001. The text has this: (§1) FIG. 10 is a set of figures showing inhibition of Gai protein increased phosphorylation of p72^syk and p60-c-Src tyrosine kinases in intact SSRBCs. FIG. 10A-FIG. 10G show the kinase expression results for twenty μg of membrane protein ghosts (SSRBC ghosts, n=7, SS1, SS2, SS3, SS4, SS5, SS6 and SS7; and normal RBC ghosts, n=7, AA1, AA2, AA3AA4, AA5, AA6 and AA7) were used per lane. FIG. 10A-FIG. 10D show Western blots and corresponding graphs showing the kinase expression results of protein ghosts which were stained with antibodies against phosphorylated p60-c-Src [p-p60-c-Src (SS1, SS2, SS3, SS4; and AA1, AA2, AA3, AA4)] and p60-c-Src [p60-c-Src (SS1, SS2, SS3, SS4, SS5, SS6, SS7, and AA1, AA2, AA3, AA4, AA5, AA6, AA7)]; and phosphorylated p72^syk [p-Syk (SS1, SS2, SS3, SS4; and AA1, AA2, AA3, AA4)] and p72^syk[Syk (SS1, SS2, SS3, SS4, SS5, SS6, SS7; and AA1, AA2, AA3, AA4, AA5, AA6, AA7)]. Antibody against glycophorin C was used as a loading control. FIG. 10C and FIG. 10D show the quantitative analysis of the data presented as relative kinase expression [SSRBCs (n=7) and AARBCs (n=7)], and as relative kinase phosphorylation [SSRBCs (n=4) and AARBCs (n=4)]. […] Quantitative analysis of the data (normalized according to total kinase expression) is presented as fold change in p60-c-Src phosphorylation (FIG. 10E and FIG. 10F) and Syk phosphorylation (FIG. 10G). […]
(In general: Immunoblotting shows a protein as a band on a membrane.)

The subject of experiment [2] is p60-c-Src. As to the kind of experiment: p60-c-Src phosphorylation in normal RBCs (Western blot). Particulars: 1 μM PP1; normal RBCs by context (FIG. 10F).
From the text: as §1

In experiment [3] the test system is SSRBCs. As to the kind of experiment: SSRBC adhesion to HUVECs after PTx/CTx treatment, with or without tyrosine kinase inhibitors, intermittent flow. The following applies: 1 μM inhibitor before 1 μg/ml PTx, shear stress 2 dynes/cm^2, p<0.01. As to the method:
FIG. 9 is a set of figures showing that activation of Gas protein increased SSRBC adhesion to endothelial cells via activation of tyrosine kinases. FIG. 9A is a schematic depiction of GPCR pathways along with inhibitors and stimuli of the kinases of these pathways regulating SSRBC adhesion. FIGS. 9B-E are a set of graphs showing adherence of RBCs which were sham-treated, or treated with Pertussis toxin (PTx) (0.5, 1 or 2 μg/ml) (FIGS. 9B-D), 1 μg/ml Cholera toxin (CTx) (FIG. 9B) or phenylarsine oxide (0.1, 10, 20, 40 and 80 μM) (FIG. 9E), or pretreated with 1 μM PP1, 1 μM PP2 or 1 μM piceatannol prior to treatment with 1 μg/ml PTx (FIG. 9C and FIG. 9D). Treated RBCs were tested for adhesion to HUVECs in intermittent flow conditions at different shear stresses. Data are presented as % adherent RBCs (FIG. 9B) or SSRBCs (FIG. 9C-FIG. 9E) at a shear stress of 2 dynes/cm^2. Each graph is representative of 3 different experiments. Error bars show standard error of the mean (SEM). *: p<0.001 compared to sham-treated RBCs; **: p<0.01 compared to PTx-treated RBCs.
Vaso-occlusion is associated with various types of physiological stress. β2-adrenergic receptors (β2AR) stimulation with catacholamines employs both Gas and &Gai (or Ga0) pathways. We first determined the Ga, Gas and/or Gai, in sickle cell regulating tyrosine kinase activation-mediated sickle cell adhesion to endothelial cells (FIG. 9A). Sickle cells adhered to some degree to endothelial cells under intermittent flow conditions at a shear stress of 2 dynes/cm^2. (FIGS. 9B-D). […] The selective Src-family kinase inhibitors, PP1 and PP2 (FIG. 9A), and the non-receptor tyrosine kinase p72^Syk inhibitor, piceatannol (FIG. 9A), inhibited the effect of PTx on sickle cell adhesion by 67±2.7%, 64±1.7% and 60 ±5.5%, respectively (p<0.01) (FIGS. 9C and 9D).

With `Cc1ccc(-c2nn(C(C)(C)C)c3ncnc(N)c23)cc1` [PP1], in experiment [1], the “PTx-increased p60-c-Src phosphorylation in sickle cells” value was “to levels below baseline phosphorylation”. The “phosphorylation of p60-c-Src, inhibitor effect” value in experiment [2] is “inhibited”. Moreover, the “inhibition of the effect of PTx on sickle cell adhesion” value in experiment [3] is listed as 67±2.7%.
